{"source": "patent US20230053540A1", "about": "“TREATMENT OF LIVER INJURY” (Massachusetts Institute of Technology, priority 2019, published 2023)", "test_system": "hepatocytes", "assay": "Seq-Well scRNA-Seq of hepatocytes after APAP overdose (signature scores, DEG vs untreated)", "format": "in vivo, mouse", "details": "APAP vs UT"}
{"smiles": "CC(=O)Nc1ccc(O)cc1", "note": "[APAP, acetaminophen]", "values": [{"measurement": "Apobec1 logFC", "value": 0.3051}, {"measurement": "Apol7a logFC", "value": "−0.4923"}, {"measurement": "App logFC", "value": 0.3618}, {"measurement": "Arcn1 logFC", "value": 0.3278}, {"measurement": "Arl4d logFC", "value": "−0.5072"}, {"measurement": "Asgr1 logFC", "value": "−0.3857"}, {"measurement": "Atox1 logFC", "value": "−0.4462"}, {"measurement": "Atp5e logFC", "value": "−0.6502"}, {"measurement": "Atp5f1 logFC", "value": "−0.5171"}, {"measurement": "Atp5j2 logFC", "value": "−0.5131"}, {"measurement": "Atp5j logFC", "value": "−0.4837"}, {"measurement": "Atp8b1 logFC", "value": 0.3628}, {"measurement": "Atxn1 logFC", "value": 0.3049}, {"measurement": "BC005537 logFC", "value": 0.3543}, {"measurement": "Baz1a logFC", "value": 0.2596}, {"measurement": "Bcl3 logFC", "value": 0.289}, {"measurement": "Blvrb logFC", "value": "−0.5451"}, {"measurement": "Btg1 logFC", "value": 0.458}, {"measurement": "Btg2 logFC", "value": 0.8321}, {"measurement": "C1qa logFC", "value": 0.5148}, {"measurement": "C1qc logFC", "value": 0.5861}, {"measurement": "C8a logFC", "value": 0.3337}, {"measurement": "Calm1 logFC", "value": 0.4131}, {"measurement": "Calu logFC", "value": 0.3041}, {"measurement": "Canx logFC", "value": 0.3434}, {"measurement": "Cat logFC", "value": 0.2626}, {"measurement": "Cd44 logFC", "value": 0.3037}, {"measurement": "Cd53 logFC", "value": 0.2656}, {"measurement": "Cd74 logFC", "value": 0.4539}, {"measurement": "Cd97 logFC", "value": 0.3458}, {"measurement": "Cd302 logFC", "value": "−0.5499"}, {"measurement": "Cebpb logFC", "value": "−0.4716"}, {"measurement": "Ces1e logFC", "value": 0.2656}, {"measurement": "Ces3b logFC", "value": "−0.3664"}, {"measurement": "Cfh logFC", "value": 0.4009}, {"measurement": "Cfhr2 logFC", "value": "−0.4485"}, {"measurement": "Cfi logFC", "value": 0.2516}, {"measurement": "Cfp logFC", "value": 0.3562}, {"measurement": "Chchd2 logFC", "value": "−0.5525"}, {"measurement": "Chic2 logFC", "value": 0.4198}, {"measurement": "Cldn14 logFC", "value": 0.3645}, {"measurement": "Clpx logFC", "value": "−0.4047"}, {"measurement": "Cltc logFC", "value": 0.785}, {"measurement": "Cmah logFC", "value": 0.3616}, {"measurement": "Cmbl logFC", "value": "−0.4427"}, {"measurement": "Cml1 logFC", "value": "−0.6142"}, {"measurement": "Cml2 logFC", "value": "−0.3979"}, {"measurement": "Copa logFC", "value": 0.3451}, {"measurement": "Cox5b logFC", "value": "−0.4988"}, {"measurement": "Cox7a2 logFC", "value": "−0.6503"}, {"measurement": "Cox7b logFC", "value": "−0.6422"}, {"measurement": "Cpb2 logFC", "value": 0.3222}, {"measurement": "Cps1 logFC", "value": 0.3245}, {"measurement": "Crp logFC", "value": "−0.5069"}, {"measurement": "Csde1 logFC", "value": 0.3269}, {"measurement": "Ctsd logFC", "value": 0.2579}, {"measurement": "Ctsl logFC", "value": 0.5301}, {"measurement": "Cxadr logFC", "value": 0.6985}, {"measurement": "Cyb5b logFC", "value": "−0.4233"}, {"measurement": "Cyb5r3 logFC", "value": 0.339}, {"measurement": "Cyp4a12a logFC", "value": "−0.4568"}, {"measurement": "Cytip logFC", "value": 0.2676}, {"measurement": "Dcxr logFC", "value": "−0.4409"}, {"measurement": "Ddt logFC", "value": "−0.5222"}, {"measurement": "Ddx3x logFC", "value": 0.6569}, {"measurement": "Ddx5 logFC", "value": 0.5229}, {"measurement": "Ddx21 logFC", "value": 0.7314}, {"measurement": "Dgkd logFC", "value": 0.3708}, {"measurement": "Dhrs3 logFC", "value": "−0.4676"}, {"measurement": "Dio1 logFC", "value": "−0.5453"}, {"measurement": "Dkc1 logFC", "value": 0.3258}, {"measurement": "Dnajc12 logFC", "value": 0.3221}, {"measurement": "Dot1l logFC", "value": 0.397}, {"measurement": "Dst logFC", "value": 0.511}, {"measurement": "Dstn logFC", "value": 0.3243}, {"measurement": "Dusp6 logFC", "value": 0.5916}, {"measurement": "Dusp16 logFC", "value": 0.4605}, {"measurement": "Eaf1 logFC", "value": 0.5218}, {"measurement": "Ebpl logFC", "value": "−0.4503"}, {"measurement": "Eef1b2 logFC", "value": "−0.3173"}, {"measurement": "Eef2 logFC", "value": 0.5259}, {"measurement": "Efna1 logFC", "value": 0.3361}, {"measurement": "Eif1a logFC", "value": 0.7953}, {"measurement": "Eif4g1 logFC", "value": 0.3749}, {"measurement": "Epas1 logFC", "value": 0.7758}, {"measurement": "Epb4.1 logFC", "value": 0.5628}, {"measurement": "Errfi1 logFC", "value": 0.3937}, {"measurement": "Etf1 logFC", "value": 0.5594}, {"measurement": "Etfb logFC", "value": "−0.3655"}, {"measurement": "Etnk1 logFC", "value": 0.3521}, {"measurement": "F5 logFC", "value": 0.3006}, {"measurement": "Fabp2 logFC", "value": "−0.6156"}, {"measurement": "Fcgr3 logFC", "value": 0.3082}, {"measurement": "Fcna logFC", "value": 0.3774}, {"measurement": "Fdx1 logFC", "value": "−0.6234"}, {"measurement": "Fgl2 logFC", "value": 0.2818}, {"measurement": "Fkbp5 logFC", "value": 0.5161}, {"measurement": "Fndc3b logFC", "value": 0.4096}, {"measurement": "Fos logFC", "value": 0.432}, {"measurement": "Fxyd1 logFC", "value": "−0.4799"}, {"measurement": "Gamt logFC", "value": "−0.5603"}, {"measurement": "Gas5 logFC", "value": "−0.3362"}, {"measurement": "Gchfr logFC", "value": "−0.5548"}, {"measurement": "Gclm logFC", "value": 0.2699}, {"measurement": "Gjb2 logFC", "value": 0.6082}, {"measurement": "Glyat logFC", "value": "−0.6477"}, {"measurement": "Gm4076 logFC", "value": "−0.3255"}, {"measurement": "Gm4952 logFC", "value": "−0.4987"}, {"measurement": "Gm5096 logFC", "value": "−0.3631"}, {"measurement": "Gm23388 logFC", "value": 0.4162}, {"measurement": "Gm24187 logFC", "value": 0.4319}, {"measurement": "Gm26917 logFC", "value": 0.8237}, {"measurement": "Gnl2 logFC", "value": 0.3905}, {"measurement": "Gnl3 logFC", "value": 0.576}, {"measurement": "Gpt2 logFC", "value": 0.5391}, {"measurement": "Gsta2 logFC", "value": 0.2522}, {"measurement": "Gstm3 logFC", "value": "−0.5986"}, {"measurement": "Gstz1 logFC", "value": "−0.4641"}, {"measurement": "Gulo logFC", "value": "−0.8017"}, {"measurement": "H2-Aa logFC", "value": 0.3279}, {"measurement": "H2-Ab1 logFC", "value": 0.461}, {"measurement": "H2-Eb1 logFC", "value": 0.3279}, {"measurement": "H3f3b logFC", "value": 0.7029}, {"measurement": "Haao logFC", "value": "−0.5912"}, {"measurement": "Hacl1 logFC", "value": "−0.7069"}, {"measurement": "Hadha logFC", "value": 0.2509}, {"measurement": "Hal logFC", "value": 0.2801}, {"measurement": "Hao1 logFC", "value": 0.323}, {"measurement": "Hc logFC", "value": 0.3679}, {"measurement": "Heatr1 logFC", "value": 0.406}, {"measurement": "Hebp1 logFC", "value": "−0.6354"}, {"measurement": "Hes6 logFC", "value": "−0.5613"}, {"measurement": "Hibadh logFC", "value": "−0.4994"}, {"measurement": "Hic2 logFC", "value": 0.2898}, {"measurement": "Hif1a logFC", "value": 0.5169}, {"measurement": "Hint2 logFC", "value": "−0.4243"}, {"measurement": "Hook1 logFC", "value": 0.3274}, {"measurement": "Hpd logFC", "value": "−0.5182"}, {"measurement": "Hpgd logFC", "value": "−0.3878"}, {"measurement": "Hpx logFC", "value": "−0.3033"}, {"measurement": "Hs3st3b1 logFC", "value": 0.343}, {"measurement": "Hsd17b2 logFC", "value": "−0.5959"}, {"measurement": "Hspa13 logFC", "value": 0.3548}, {"measurement": "Hspb8 logFC", "value": 0.6339}, {"measurement": "Hspe1 logFC", "value": "−0.4807"}, {"measurement": "Ibtk logFC", "value": 0.3311}, {"measurement": "Ier5 logFC", "value": 0.289}, {"measurement": "Ifitm3 logFC", "value": "−0.4251"}, {"measurement": "Igfbp1 logFC", "value": 1.059}, {"measurement": "Igfbp2 logFC", "value": "−0.3451"}, {"measurement": "Il6st logFC", "value": 0.3335}, {"measurement": "Il13ra1 logFC", "value": 0.303}, {"measurement": "Inmt logFC", "value": "−0.731"}, {"measurement": "Insig1 logFC", "value": 0.4655}, {"measurement": "Ipo7 logFC", "value": 0.3246}, {"measurement": "Itgb2 logFC", "value": 0.2723}, {"measurement": "Itih2 logFC", "value": 0.5011}, {"measurement": "Jak1 logFC", "value": 0.6039}, {"measurement": "Jmjd1c logFC", "value": 0.6366}, {"measurement": "Kctd3 logFC", "value": 0.2608}, {"measurement": "Keg1 logFC", "value": "−0.8245"}, {"measurement": "Klf15 logFC", "value": "−0.4518"}, {"measurement": "Kmo logFC", "value": "−0.3844"}, {"measurement": "Lactb2 logFC", "value": "−0.5965"}, {"measurement": "Laptm5 logFC", "value": 0.3382}, {"measurement": "Lcn2 logFC", "value": 0.4122}, {"measurement": "Leap2 logFC", "value": "−0.6713"}, {"measurement": "Lect2 logFC", "value": "−0.627"}, {"measurement": "Lgmn logFC", "value": 0.4846}, {"measurement": "Lgr4 logFC", "value": 0.269}, {"measurement": "Lman1 logFC", "value": 0.2986}, {"measurement": "Lmo4 logFC", "value": 0.3205}, {"measurement": "Lonp2 logFC", "value": "−0.4674"}, {"measurement": "Lpin1 logFC", "value": 0.2775}, {"measurement": "Lrp1 logFC", "value": 0.5051}, {"measurement": "Lrrc59 logFC", "value": 0.3772}, {"measurement": "Lrrfip1 logFC", "value": 0.4459}, {"measurement": "Lyst logFC", "value": 0.4093}, {"measurement": "Maff logFC", "value": 0.3553}, {"measurement": "Mak16 logFC", "value": 0.3171}, {"measurement": "Malat1 logFC", "value": 0.9206}, {"measurement": "Manf logFC", "value": 0.4689}, {"measurement": "Map2k3 logFC", "value": 0.4347}, {"measurement": "Mbl1 logFC", "value": "−0.713"}, {"measurement": "Mcm10 logFC", "value": "−0.4874"}, {"measurement": "Mdn1 logFC", "value": 0.318}, {"measurement": "Minos1 logFC", "value": "−0.4555"}, {"measurement": "Mlec logFC", "value": 0.3246}, {"measurement": "Mmp14 logFC", "value": 0.2889}, {"measurement": "Mpc1 logFC", "value": "−0.2818"}, {"measurement": "Mpc2 logFC", "value": "−0.4828"}, {"measurement": "Mrpl14 logFC", "value": "−0.459"}, {"measurement": "Msn logFC", "value": 0.2602}, {"measurement": "Msrb1 logFC", "value": "−0.599"}, {"measurement": "Mug2 logFC", "value": 0.3704}, {"measurement": "Mup2 logFC", "value": 1}, {"measurement": "Myo1e logFC", "value": 0.6143}, {"measurement": "Nab1 logFC", "value": 0.3342}, {"measurement": "Ndufa6 logFC", "value": "−0.6136"}, {"measurement": "Ndufa7 logFC", "value": "−0.5559"}, {"measurement": "Ndufa13 logFC", "value": "−0.4388"}, {"measurement": "Ndufb2 logFC", "value": "−0.5772"}]}
